Literature values, collected in patent publication US20220168241A1, “SUSTAINED RELEASE C[…] METHOD OF PREPARATION THEREOF” (PHARMATHEN S.A., priority 2019, published 2022).

Molecular target: recombinant μ-opioid receptor (Homo sapiens, UniProt P35372)
Sequence (P35372 whole entry, species assumed): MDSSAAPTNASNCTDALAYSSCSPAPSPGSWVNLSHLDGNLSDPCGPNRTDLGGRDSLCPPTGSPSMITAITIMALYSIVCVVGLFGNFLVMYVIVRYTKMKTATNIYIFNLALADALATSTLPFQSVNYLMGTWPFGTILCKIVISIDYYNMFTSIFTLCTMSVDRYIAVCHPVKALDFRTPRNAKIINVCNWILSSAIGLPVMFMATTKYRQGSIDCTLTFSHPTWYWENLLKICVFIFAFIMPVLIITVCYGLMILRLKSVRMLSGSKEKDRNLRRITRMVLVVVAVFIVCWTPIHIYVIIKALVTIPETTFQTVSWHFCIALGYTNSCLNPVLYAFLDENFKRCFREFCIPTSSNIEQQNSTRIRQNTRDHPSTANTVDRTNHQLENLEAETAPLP

## CC[C@@H](c1cccc(O)c1)[C@@H](C)CN(C)C [Tapentadol]
  reduced affinity to recombinant μ-opioid receptor compared to morphine: 18 times
